Assay results published in patent US12655116B2, “Substituted isophthalic acid diamides” (Bayer Aktiengesellschaft, priority 2020, dated 2026).

Key:
MATIN [1] = test: Post-emergence herbicidal action against MATIN; type: in vivo, Matricaria inodora
In short: (§1)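 Weeds in sandy loam soil received a post-emergence spray at the one-leaf stage. Compounds were applied as WP or EC in water, 600 to 800 l/ha, with 0.2% wetting agent. Activity in % was judged visually after roughly 3 weeks against untreated plants.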

HORMU [2] = test: Pre-emergence herbicidal action against HORMU; type: in vivo, Hordeum murinum; settings: Hordeum murinum, 504 h; 80 g/ha, pre-emergence
In short: (§2)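 Visual rating at 3 weeks vs untreated pots; 0–100% scale, 100% = plants died. Treatment: aqueous WP/EC spray onto covering soil, 600–800 l/ha, 0.2% wetter, seeds in sandy loam.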

ECHCG [3] = test: Post-emergence herbicidal action against ECHCG; type: in vivo, Echinochloa crus-galli
In short: as §1

VERPE [4] = test: Post-emergence herbicidal action against VERPE; type: in vivo, Veronica persica; settings: 20 g/ha
In short: as §1

ALOMY [5] = test: Pre-emergence herbicidal action against ALOMY; type: in vivo, Alopecurus myosuroides; settings: 80 g/ha, pre-emergence, scored visually after 3 weeks vs untreated controls (100% = plants have died, 0% = like control plants)
In short: as §2

AVEFA [6] = test: Pre-emergence herbicidal action against AVEFA; type: in vivo, Avena fatua; settings: Avena fatua, 504 h; 80 g/ha, pre-emergence
In short: as §2

POLCO [7] = test: Post-emergence herbicidal action against POLCO; type: in vivo, Polygonum convolvulus; settings: dosage 20 g/ha
In short: as §1

AMARE [8] = test: Pre-emergence herbicidal action against AMARE; type: in vivo, Amaranthus retroflexus
In short: as §2

STEME [9] = test: Pre-emergence herbicidal action against STEME; type: in vivo, Stellaria media
In short: as §2

LOLRI [10] = test: Post-emergence herbicidal action against LOLRI; type: in vivo, Lolium rigidum; settings: dosage 20 g/ha
In short: as §1

SETVI [11] = test: Post-emergence herbicidal action against SETVI; type: in vivo, Setaria viridis
In short: as §1

DIGSA [12] = test: Pre-emergence herbicidal action against DIGSA; type: in vivo, Digitaria sanguinalis
In short: as §2

VIOTR [13] = test: Post-emergence herbicidal action against VIOTR; type: in vivo, Viola tricolor
In short: as §1

PHBPU = test: Post-emergence herbicidal action against PHBPU; type: in vivo, Pharbitis purpurea; settings: dosage 20 g/ha
In short: as §1

AMARE [14] = test: Post-emergence herbicidal action against AMARE; type: in vivo, Amaranthus retroflexus; settings: 20 g/ha, visual assessment about 3 weeks after treatment, 100% = plants have died, 0% = like control plants
In short: as §1

STEME [15] = test: Post-emergence herbicidal action against STEME; type: in vivo, Stellaria media
In short: as §1

POLCO [16] = test: Pre-emergence herbicidal action against POLCO; type: in vivo, Polygonum convolvulus; settings: Fallopia convolvulus, 504 h, dosage 80 g/ha
In short: as §2

ECHCG [17] = test: Pre-emergence herbicidal action against ECHCG; type: in vivo, Echinochloa crus-galli
In short: as §2

ALOMY [18] = test: Post-emergence herbicidal action against ALOMY; type: in vivo, Alopecurus myosuroides; settings: dosage 20 g/ha, visual assessment about 3 weeks after treatment vs untreated controls
In short: as §1

MATIN [19] = test: Pre-emergence herbicidal action against MATIN; type: in vivo, Matricaria inodora
In short: as §2

DIGSA [20] = test: Post-emergence herbicidal action against DIGSA; type: in vivo, Digitaria sanguinalis
In short: as §1

SETVI [21] = test: Pre-emergence herbicidal action against SETVI; type: in vivo, Setaria viridis
In short: as §2

ABUTH [22] = test: Post-emergence herbicidal action against ABUTH; type: in vivo, Abutilon theophrasti; settings: visual assessment about 3 weeks after treatment vs untreated controls
In short: as §1

LOLRI [23] = test: Pre-emergence herbicidal action against LOLRI; type: in vivo, Lolium rigidum; settings: Lolium rigidum, 504 h, 80 g/ha
In short: as §2

ABUTH [24] = test: Pre-emergence herbicidal action against ABUTH; type: in vivo, Abutilon theophrasti
In short: as §2

VIOTR [25] = test: Pre-emergence herbicidal action against VIOTR; type: in vivo, Viola tricolor
In short: as §2

VERPE [26] = test: Pre-emergence herbicidal action against VERPE; type: in vivo, Veronica persica; settings: dosage 80 g/ha
In short: as §2

HORMU [27] = test: Post-emergence herbicidal action against HORMU; type: in vivo, Hordeum murinum; settings: dosage 20 g/ha
In short: as §1

AVEFA [28] = test: Post-emergence herbicidal action against AVEFA; type: in vivo, Avena fatua; settings: 20 g/ha, visual assessment about 3 weeks after treatment, 100% = plants have died, 0% = like control plants
In short: as §1

[29] = Tripleurospermum inodorum, 504 h, dosage 20 g/ha
[30] = Setaria viridis, 504 h, dosage 20 g/ha
[31] = 80 g/ha, scored visually after 3 weeks vs untreated controls (100% = plants have died, 0% = like control plants)

CCNC(=O)c1c(C(F)(F)F)ccc(C(=O)Nc2nnnn2C)c1C [Example 1-26]
pest or weed control at 5 g/ha (MATIN [1]; Tripleurospermum inodorum, 504 h, dosage 5 g/ha): 90% | pest or weed control at 20 g/ha (MATIN [1]; [29]): 90% | pest or weed control at 80 g/ha (HORMU [2]): 80% | pest or weed control at 20 g/ha (ECHCG [3]; Echinochloa crus-galli, 504 h, dosage 20 g/ha): 80% | pest or weed control at 20 g/ha (VERPE [4]; Veronica persica, 504 h): 80% | pest or weed control at 80 g/ha (ALOMY [5]; Alopecurus myosuroides, 504 h): 100% | pest or weed control at 80 g/ha (AVEFA [6]): 100% | pest or weed control at 20 g/ha (POLCO [7]; Fallopia convolvulus, 504 h): 90% | pest or weed control at 20 g/ha (AMARE [8]; Amaranthus retroflexus, 504 h, 20 g/ha, scored visually after 3 weeks vs untreated controls, 100% = plants have died, 0% = like control plants): 100% | pest or weed control at 80 g/ha (AMARE [8]; Amaranthus retroflexus, 504 h, 80 g/ha, scored visually after 3 weeks vs untreated controls, 100% = plants have died, 0% = like control plants): 100% | pest or weed control at 20 g/ha (STEME [9]; Stellaria media, 504 h, dosage 20 g/ha): 100% | pest or weed control at 80 g/ha (STEME [9]; Stellaria media, 504 h, dosage 80 g/ha): 100% | pest or weed control at 20 g/ha (LOLRI [10]; Lolium rigidum, 504 h): 80% | pest or weed control at 5 g/ha (SETVI [11]; Setaria viridis, 504 h, dosage 5 g/ha): 100% | pest or weed control at 20 g/ha (SETVI [11]; [30]): 100% | pest or weed control at 20 g/ha (DIGSA [12]; Digitaria sanguinalis, 504 h, dosage 20 g/ha): 100% | pest or weed control at 80 g/ha (DIGSA [12]; Digitaria sanguinalis, 504 h, dosage 80 g/ha): 100% | pest or weed control at 5 g/ha (VIOTR [13]; Viola tricolor, 504 h, 5 g/ha): 100% | pest or weed control at 20 g/ha (VIOTR [13]; Viola tricolor, 504 h, 20 g/ha): 100% | pest or weed control at 20 g/ha (PHBPU; Ipomoea purpurea, 504 h): 80% | pest or weed control at 20 g/ha (AMARE [14]; Amaranthus retroflexus, 504 h): 100% | pest or weed control at 20 g/ha (STEME [15]; Stellaria media, 504 h, 20 g/ha): 90% | pest or weed control at 5 g/ha (STEME [15]; Stellaria media, 504 h, dosage 5 g/ha): 90% | pest or weed control at 80 g/ha (POLCO [16]): 90% | pest or weed control at 20 g/ha (ECHCG [17]; Echinochloa crus-galli, 504 h, 20 g/ha): 80% | pest or weed control at 80 g/ha (ECHCG [17]; Echinochloa crus-galli, 504 h, 80 g/ha): 100% | pest or weed control at 20 g/ha (ALOMY [18]; Alopecurus myosuroides, 504 h): 90% | pest or weed control at 20 g/ha (MATIN [19]; [29]): 100% | pest or weed control at 80 g/ha (MATIN [19]; Tripleurospermum inodorum, 504 h, dosage 80 g/ha): 100% | pest or weed control at 5 g/ha (DIGSA [20]; Digitaria sanguinalis, 504 h, 5 g/ha): 90% | pest or weed control at 20 g/ha (DIGSA [20]; Digitaria sanguinalis, 504 h, 20 g/ha): 100% | pest or weed control at 20 g/ha (SETVI [21]; [30]): 80% | pest or weed control at 80 g/ha (SETVI [21]; Setaria viridis, 504 h, dosage 80 g/ha): 100% | pest or weed control at 5 g/ha (ABUTH [22]; Abutilon theophrasti, 504 h, dosage 5 g/ha): 90% | pest or weed control at 20 g/ha (ABUTH [22]; Abutilon theophrasti, 504 h, dosage 20 g/ha): 100% | pest or weed control at 80 g/ha (LOLRI [23]): 80% | pest or weed control at 80 g/ha (ABUTH [24]; Abutilon theophrasti, 504 h, 80 g/ha, scored visually after 3 weeks vs untreated controls (100% = plants have died, 0% = like control plants)): 100% | pest or weed control at 20 g/ha (ABUTH [24]; Abutilon theophrasti, 504 h, dosage 20 g/ha, scored visually after 3 weeks vs untreated controls, 100% = plants have died, 0% = like control plants, read-out: Pre-emergence action against ABUTH (herbicidal activity in percent)): 100% | pest or weed control at 20 g/ha (VIOTR [25]; Viola tricolor, 504 h, dosage 20 g/ha): 90% | pest or weed control at 80 g/ha (VIOTR [25]; Viola tricolor, 504 h, dosage 80 g/ha): 100% | pest or weed control at 80 g/ha (VERPE [26]; Veronica persica, 504 h): 80%

CNC(=O)c1c(C(F)F)ccc(C(=O)Nc2nnco2)c1Cl [Example 5-122]
Post-emergence action against MATIN in % (MATIN [1]; dosage 5 g/ha): 80% | Post-emergence action against MATIN in % (MATIN [1]; dosage 20 g/ha): 80% | Post-emergence action against ECHCG in % (ECHCG [3]; dosage 5 g/ha): 90% | Post-emergence action against ECHCG in % (ECHCG [3]; dosage 20 g/ha): 90% | Post-emergence action against VERPE in % (VERPE [4]): 80% | Pre-emergence action against ALOMY (herbicidal activity) (ALOMY [5]): 80% | Post-emergence action against HORMU in % (HORMU [27]): 80% | Post-emergence action against POLCO in % (POLCO [7]): 80% | Pre-emergence action against AMARE in % (AMARE [8]; 20 g/ha, scored visually after 3 weeks vs untreated controls, 100% = plants have died, 0% = like control plants): 80% | Pre-emergence action against AMARE in % (AMARE [8]; [31]): 100% | Pre-emergence action against STEME in % (STEME [9]; dosage 20 g/ha): 90% | Pre-emergence action against STEME in % (STEME [9]; dosage 80 g/ha): 90% | Post-emergence action against LOLRI in % (LOLRI [10]): 80% | Post-emergence action at 20 g/ha against AVEFA in % (AVEFA [28]): 80% | Post-emergence action against SETVI in % (SETVI [11]; dosage 5 g/ha): 80% | Post-emergence action against SETVI in % (SETVI [11]; dosage 20 g/ha): 90% | Pre-emergence action against DIGSA in % (DIGSA [12]; dosage 20 g/ha): 100% | Pre-emergence action against DIGSA in % (DIGSA [12]; dosage 80 g/ha): 100% | Post-emergence action against VIOTR in % (VIOTR [13]; 5 g/ha): 90% | Post-emergence action against VIOTR in % (VIOTR [13]; 20 g/ha): 90% | Post-emergence action against PHBPU in % (PHBPU): 90% | Post-emergence action at 20 g/ha against AMARE in % (AMARE [14]): 90% | Post-emergence action against STEME in % (STEME [15]; 20 g/ha): 100% | Post-emergence action against STEME in % (STEME [15]; dosage 5 g/ha): 90% | Pre-emergence action against ECHCG in % (ECHCG [17]; 20 g/ha): 80% | Pre-emergence action against ECHCG in % (ECHCG [17]; 80 g/ha): 100% | Post-emergence action against ALOMY in % (ALOMY [18]): 80% | Pre-emergence action against MATIN in % (MATIN [19]; dosage 80 g/ha): 90% | Post-emergence action against DIGSA in % (DIGSA [20]; 5 g/ha): 90% | Post-emergence action against DIGSA (DIGSA [20]; 20 g/ha): 90% | Pre-emergence action against SETVI in % (SETVI [21]; dosage 80 g/ha): 100% | Post-emergence action against ABUTH in % (ABUTH [22]; dosage 5 g/ha): 80% | Post-emergence action against ABUTH in % (ABUTH [22]; dosage 20 g/ha): 90% | Pre-emergence action against ABUTH (herbicidal activity) (ABUTH [24]; [31]): 100% | Pre-emergence action against ABUTH (herbicidal activity in percent) (ABUTH [24]; dosage 20 g/ha, scored visually after 3 weeks vs untreated controls, 100% = plants have died, 0% = like control plants): 90% | Pre-emergence action against VIOTR in % (VIOTR [25]; dosage 20 g/ha): 80% | Pre-emergence action against VIOTR in % (VIOTR [25]; dosage 80 g/ha): 100% | Pre-emergence action against VERPE in % (VERPE [26]): 100%
